Measured values taken from PMC11318018 (ACS Medicinal Chemistry Letters, 2024).

Biological target: HiBiT-RR BRD4 (Homo sapiens, UniProt O60885)
Experiment: Kinetic degradation of HiBiT-RR BRD4 CRISPR knock-in in HEK293 cells
Format: cell-based

Cc1ncsc1-c1ccc(CNC(=O)[C@@H]2C[C@@H](O)CN2C(=O)[C@@H](NC(=O)COCCOCCOCCNC(=O)C[C@@H]2N=C(c3ccc(Cl)cc3)c3c(sc(C)c3C)-n3c(C)nnc32)C(C)(C)C)cc1 [MZ1]
DC50 or Dmax difference HiBiT-KK vs HiBiT-RR BRD4: no significant DC50 or Dmax difference
